Reference: patent US20240270762A1, “PENICILLIN-BINDING PROTEIN INHIBITORS” (priority 2021, published 2024)
pEC50, pIC50: −log10 of the molar value. Values after ≈ are worked out from the molar mass of the structure shown. Like-named read-outs stand apart in the source and are kept apart here.

What was measured:
[1] = biological target: T1, PBP3 from Escherichia coli (K-12) (Escherichia coli, UniProt P0AD68); test: Bocillin-FL fluorescence polarization competition binding, E. coli PBP3
T1 construct: made in house
In short: (§1)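 Purified PBP was preincubated with inhibitor (E. coli PBP3 1.5 μM, 30 min; P. aeruginosa PBP3 0.75 μM, A. baumannii PBP3 0.2 μM and PBP1a 1 μM, 15 min), then Bocillin-FL (0.1 μM; 0.05 μM for PBP1a) added and FP read up to 60 min. EC50 = 50% loss of bound probe.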

[2] = biological target: T2, PBP3 from Pseudomonas aeruginosa (PAO1) (Pseudomonas aeruginosa, UniProt G3XD46); test: Bocillin-FL fluorescence polarization competition binding, P. aeruginosa PBP3; details: Binding affinity to P. aeruginosa PBP3; fluorescence polarization competition binding assay using Bocillin-FL; read-out: P. aeruginosa PBP3 Potency
T2 construct: made in house
In short: as §1

[3] = biological target: T3, PBP1a from Acinetobacter baumannii (ATCC 19606) (Acinetobacter baumannii, UniProt A0ABX6CK30); test: Bocillin-FL fluorescence polarization competition binding, A. baumannii PBP1a; details: fluorescence polarization competition binding assay using Bocillin-FL; read-out: A. baumannii PBP1a Potency
T3 sequence (A0ABX6CK30 1-851): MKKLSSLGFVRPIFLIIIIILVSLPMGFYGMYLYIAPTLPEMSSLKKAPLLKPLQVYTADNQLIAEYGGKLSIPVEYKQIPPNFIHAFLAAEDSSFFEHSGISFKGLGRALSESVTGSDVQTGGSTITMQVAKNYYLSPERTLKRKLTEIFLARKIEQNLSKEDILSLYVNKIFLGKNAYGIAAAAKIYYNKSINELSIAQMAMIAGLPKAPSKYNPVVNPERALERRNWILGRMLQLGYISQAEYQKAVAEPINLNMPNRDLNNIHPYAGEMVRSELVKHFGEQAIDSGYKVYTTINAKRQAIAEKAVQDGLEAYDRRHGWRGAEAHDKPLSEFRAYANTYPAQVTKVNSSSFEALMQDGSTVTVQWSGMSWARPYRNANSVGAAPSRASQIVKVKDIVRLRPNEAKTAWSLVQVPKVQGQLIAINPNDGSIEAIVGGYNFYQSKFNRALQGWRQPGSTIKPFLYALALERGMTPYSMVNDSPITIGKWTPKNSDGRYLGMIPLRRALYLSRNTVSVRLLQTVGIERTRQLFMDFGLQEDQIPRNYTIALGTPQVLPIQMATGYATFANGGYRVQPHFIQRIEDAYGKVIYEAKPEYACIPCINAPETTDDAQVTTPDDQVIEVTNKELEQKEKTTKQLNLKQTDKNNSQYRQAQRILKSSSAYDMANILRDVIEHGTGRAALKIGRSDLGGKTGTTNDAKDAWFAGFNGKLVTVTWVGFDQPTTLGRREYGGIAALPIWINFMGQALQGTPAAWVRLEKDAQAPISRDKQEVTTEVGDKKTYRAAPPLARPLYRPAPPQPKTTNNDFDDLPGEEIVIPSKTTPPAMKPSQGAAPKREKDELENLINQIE
In short: as §1

A. baumannii ATCC 17978 = test: microbe, parasite or virus in culture; assay type: cell-based; details: Acinetobacter baumannii, ATCC17978, read-out: MIC, A. baumannii ATCC 17978
P. aeruginosa CDC-0090 = test: microbe, parasite or virus in culture; assay type: cell-based; details: Pseudomonas aeruginosa, CDC0090, read-out: Minimum inhibitory concentration, P. aeruginosa CDC-0090
A. baumannii CDC-0033 = test: microbe, parasite or virus in culture; assay type: cell-based; details: Acinetobacter baumannii, CDC0033, read-out: MIC, A. baumannii CDC-0033
[4] = test system: N. gonorrhoeae ATCC 49226; test: Liquid broth MIC in Fastidious broth; details: Neisseria gonorrhoeae
N. gonorrhoeae WHO L = test: Liquid broth MIC in Fastidious broth; details: Neisseria gonorrhoeae
[5] = ATCC49226, read-out: Minimum Inhibitory Concentration, ATCC 49226
[6] = read-out: Minimum Inhibitory Concentration, WHO L
[7] = ATCC49226, read-out: Minimum Inhibitory Concentration (MIC), N. gonorrhoeae ATCC 49226
[8] = read-out: Minimum Inhibitory Concentration (MIC), N. gonorrhoeae WHO L

T1 sequence (P0AD68 1-577): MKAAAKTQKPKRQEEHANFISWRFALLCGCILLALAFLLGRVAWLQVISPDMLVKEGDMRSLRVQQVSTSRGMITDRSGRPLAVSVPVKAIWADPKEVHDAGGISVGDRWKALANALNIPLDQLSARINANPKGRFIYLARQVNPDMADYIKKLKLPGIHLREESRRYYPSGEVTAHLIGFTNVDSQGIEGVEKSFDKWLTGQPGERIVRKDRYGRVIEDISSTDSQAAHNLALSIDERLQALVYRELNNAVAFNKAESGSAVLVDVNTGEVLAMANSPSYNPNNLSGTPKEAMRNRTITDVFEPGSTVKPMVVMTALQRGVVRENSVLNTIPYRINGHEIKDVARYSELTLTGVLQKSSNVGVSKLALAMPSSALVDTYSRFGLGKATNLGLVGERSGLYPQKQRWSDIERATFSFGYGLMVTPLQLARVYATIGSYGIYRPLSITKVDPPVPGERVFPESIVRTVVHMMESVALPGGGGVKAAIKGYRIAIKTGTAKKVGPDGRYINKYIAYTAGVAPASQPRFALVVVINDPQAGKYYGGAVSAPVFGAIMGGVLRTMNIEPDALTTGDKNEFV
T2 sequence (G3XD46 whole entry): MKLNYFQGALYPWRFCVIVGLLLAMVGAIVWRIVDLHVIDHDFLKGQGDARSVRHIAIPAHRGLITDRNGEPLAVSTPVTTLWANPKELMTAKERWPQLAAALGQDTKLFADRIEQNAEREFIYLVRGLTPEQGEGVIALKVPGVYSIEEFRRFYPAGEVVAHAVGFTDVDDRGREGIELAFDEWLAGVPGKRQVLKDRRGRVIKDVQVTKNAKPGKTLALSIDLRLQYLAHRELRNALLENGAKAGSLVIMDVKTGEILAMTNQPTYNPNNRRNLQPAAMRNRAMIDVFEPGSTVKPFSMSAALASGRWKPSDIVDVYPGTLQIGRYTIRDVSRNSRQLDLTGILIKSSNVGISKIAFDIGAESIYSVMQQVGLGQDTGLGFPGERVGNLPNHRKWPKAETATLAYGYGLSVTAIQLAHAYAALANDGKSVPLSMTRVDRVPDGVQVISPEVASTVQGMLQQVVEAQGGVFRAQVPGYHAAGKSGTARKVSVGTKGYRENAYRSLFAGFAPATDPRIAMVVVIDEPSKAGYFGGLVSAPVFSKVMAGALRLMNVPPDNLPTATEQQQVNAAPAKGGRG

| Structure (SMILES) | pEC50 [1] | pIC50 [2] | pIC50 [3] | MIC (A. baumannii ATCC 17978) [µg/mL] | MIC (P. aeruginosa CDC-0090) [µg/mL] | MIC (A. baumannii CDC-0033) [µg/mL] | MIC [4, 5] [µg/mL] | MIC (N. gonorrhoeae WHO L; [6]) [µg/mL] | MIC [4, 7] [µg/mL] | MIC (N. gonorrhoeae WHO L; [8]) [µg/mL] |
| --- | --- | --- | --- | --- | --- | --- | --- | --- | --- | --- |
| O=C(NCCCS(=O)(=O)N1CCN(C(=O)NC(C(=O)N[C@H]2Cc3ccc(F)c(C(=O)O)c3OB2O)c2cc(F)c(O)c(O)c2Cl)C1=O)c1ccncc1 (stereo partly drawn) [Example 272, (3R)-3-(2-(2-chloro-5-fluoro-3,4-dihydroxyphenyl)-2-(3-((3-(isonicotinamido)propyl)sulfonyl)-2-oxoimidazolidine-1-carboxamido)acetamido)-7-fluoro-2-hydroxy-3,4-dihydro-2H-benzo[e][1,2]oxaborinine-8-carboxylic acid] | > 5.00 | > 5.00 | < 3.60 | < 1 | 2 to 4 (≈ 2.56 to 5.12 µM) | 8 to 16 (≈ 10.2 to 20.5 µM) | 16 to 32 (≈ 20.5 to 41 µM) | > 64 |  |  |
| O=C(CN1CCN(C(=O)NC(C(=O)N[C@H]2Cc3ccc(F)c(C(=O)O)c3OB2O)c2cc(F)c(O)c(O)c2Cl)C(=O)C1=O)Nc1cccnc1 (stereo partly drawn) [Example 234, (3R)-3-(2-(2-chloro-5-fluoro-3,4-dihydroxyphenyl)-2-(2,3-dioxo-4-(2-oxo-2-(pyridin-3-ylamino)ethyl)piperazine-1-carboxamido)acetamido)-7-fluoro-2-hydroxy-3,4-dihydro-2H-benzo[e][1,2]oxaborinine-8-carboxylic acid] | > 5.00 | > 5.00 | < 3.60 | < 1 | 2 to 4 (≈ 2.79 to 5.58 µM) | 8 to 16 (≈ 11.2 to 22.3 µM) |  |  | 4 to 8 (≈ 5.58 to 11.2 µM) | > 64 |
| O=C(NCCCS(=O)(=O)N1CCN(C(=O)N[C@@H](C(=O)N[C@H]2Cc3ccc(F)c(C(=O)O)c3OB2O)c2cc(F)c(O)c(O)c2Cl)C1=O)c1cccc(O)c1 [Example 271, (R)-3-((R)-2-(2-chloro-5-fluoro-3,4-dihydroxyphenyl)-2-(3-((3-(3-hydroxybenzamido)propyl)sulfonyl)-2-oxoimidazolidine-1-carboxamido)acetamido)-7-fluoro-2-hydroxy-3,4-dihydro-2H-benzo[e][1,2]oxaborinine-8-carboxylic acid] | > 5.00 | > 5.00 | < 3.60 | < 1 | 2 to 4 (≈ 2.51 to 5.03 µM) | 2 to 4 (≈ 2.51 to 5.03 µM) | 16 to 32 (≈ 20.1 to 40.2 µM) | > 64 |  |  |
| CN(CCN1CCN(C(=O)N[C@@H](C(=O)N[C@H]2Cc3ccc(F)c(C(=O)O)c3OB2O)c2cc(F)c(O)c(O)c2Cl)C(=O)C1=O)Cc1cccc(C(N)=O)c1 [Example 225, (R)-3-((R)-2-(4-(2-((3-carbamoylbenzyl)(methyl)amino)ethyl)-2,3-dioxopiperazine-1-carboxamido)-2-(2-chloro-5-fluoro-3,4-dihydroxyphenyl)acetamido)-7-fluoro-2-hydroxy-3,4-dihydro-2H-benzo[e][1,2]oxaborinine-8-carboxylic acid] | 4.30 to 5.00 | > 5.00 | < 3.60 | < 1 | < 1 | 2 to 4 (≈ 2.59 to 5.18 µM) |  |  | 16 to 32 (≈ 20.7 to 41.4 µM) | > 64 |
| O=C(NCCS(=O)(=O)N1CCN(C(=O)NC(C(=O)N[C@H]2Cc3ccc(F)c(C(=O)O)c3OB2O)c2cc(F)c(O)c(O)c2Cl)C1=O)c1ccccc1 (stereo partly drawn) [Example 260, (3R)-3-(2-(3-((2-benzamidoethyl)sulfonyl)-2-oxoimidazolidine-1-carboxamido)-2-(2-chloro-5-fluoro-3,4-dihydroxyphenyl)acetamido)-7-fluoro-2-hydroxy-3,4-dihydro-2H-benzo[e][1,2]oxaborinine-8-carboxylic acid] | > 5.00 | > 5.00 | < 3.60 | < 1 | 2 to 4 (≈ 2.61 to 5.22 µM) | 2 to 4 (≈ 2.61 to 5.22 µM) | 16 to 32 (≈ 20.9 to 41.8 µM) | > 64 |  |  |
| O=C(NCCCN1CCN(C(=O)N[C@@H](C(=O)N[C@H]2Cc3ccc(F)c(C(=O)O)c3OB2O)c2cc(F)c(O)c(O)c2Cl)C(=O)C1=O)c1cccnc1 [Example 210, (R)-3-((R)-2-(2-chloro-5-fluoro-3,4-dihydroxyphenyl)-2-(4-(3-(nicotinamido)propyl)-2,3-dioxopiperazine-1-carboxamido)acetamido)-7-fluoro-2-hydroxy-3,4-dihydro-2H-benzo[e][1,2]oxaborinine-8-carboxylic acid] | > 5.00 | > 5.00 | < 3.60 | < 1 | < 1 | 8 to 16 (≈ 10.7 to 21.5 µM) |  |  | 16 to 32 (≈ 21.5 to 43 µM) | > 64 |
| O=C(NCCN1CCN(C(=O)NC(C(=O)N[C@H]2Cc3ccc(F)c(C(=O)O)c3OB2O)c2cc(F)c(O)c(O)c2Cl)C(=O)C1=O)Nc1cccc(O)c1 (stereo partly drawn) [Example 220, (3R)-3-(2-(2-chloro-5-fluoro-3,4-dihydroxyphenyl)-2-(4-(2-(3-(3-hydroxyphenyl)ureido)ethyl)-2,3-dioxopiperazine-1-carboxamido)acetamido)-7-fluoro-2-hydroxy-3,4-dihydro-2H-benzo[e][1,2]oxaborinine-8-carboxylic acid] | > 5.00 | > 5.00 | < 3.60 | < 1 | < 1 | 2 to 4 (≈ 2.63 to 5.26 µM) |  |  | 16 to 32 (≈ 21 to 42.1 µM) | > 64 |
| O=C(CN1CCN(C(=O)NC(C(=O)N[C@H]2Cc3ccc(F)c(C(=O)O)c3OB2O)c2cc(F)c(O)c(O)c2Cl)C(=O)C1=O)NCc1cccnc1 (stereo partly drawn) [Example 240, (3R)-3-(2-(2-chloro-5-fluoro-3,4-dihydroxyphenyl)-2-(2,3-dioxo-4-(2-oxo-2-((pyridin-3-ylmethyl)amino)ethyl)piperazine-1-carboxamido)acetamido)-7-fluoro-2-hydroxy-3,4-dihydro-2H-benzo[e][1,2]oxaborinine-8-carboxylic acid] | > 5.00 | > 5.00 | < 3.60 | < 1 | 2 to 4 (≈ 2.74 to 5.47 µM) | 2 to 4 (≈ 2.74 to 5.47 µM) |  |  | 16 to 32 (≈ 21.9 to 43.8 µM) | > 64 |
| O=C(NCCCS(=O)(=O)N1CCN(C(=O)NC(C(=O)N[C@H]2Cc3ccc(F)c(C(=O)O)c3OB2O)c2cc(F)c(O)c(O)c2Cl)C1=O)c1cccnc1 (stereo partly drawn) [Example 273, (3R)-3-(2-(2-chloro-5-fluoro-3,4-dihydroxyphenyl)-2-(3-((3-(nicotinamido)propyl)sulfonyl)-2-oxoimidazolidine-1-carboxamido)acetamido)-7-fluoro-2-hydroxy-3,4-dihydro-2H-benzo[e][1,2]oxaborinine-8-carboxylic acid] | > 5.00 | > 5.00 | < 3.60 | < 1 | < 1 | 2 to 4 (≈ 2.56 to 5.12 µM) | 16 to 32 (≈ 20.5 to 41 µM) | > 64 |  |  |
| O=C(NCCCN1CCN(C(=O)NC(C(=O)N[C@H]2Cc3ccc(F)c(C(=O)O)c3OB2O)c2cc(F)c(O)c(O)c2Cl)C(=O)C1=O)c1ccc(O)cc1 (stereo partly drawn) [Example 203, (3R)-3-(2-(2-chloro-5-fluoro-3,4-dihydroxyphenyl)-2-(4-(3-(4-hydroxybenzamido)propyl)-2,3-dioxopiperazine-1-carboxamido)acetamido)-7-fluoro-2-hydroxy-3,4-dihydro-2H-benzo[e][1,2]oxaborinine-8-carboxylic acid] | > 5.00 | > 5.00 | < 3.60 | < 1 | < 1 | 2 to 4 (≈ 2.63 to 5.26 µM) |  |  | 4 to 8 (≈ 5.26 to 10.5 µM) | 16 to 32 (≈ 21.1 to 42.1 µM) |
